According to PubChem BioAssay (NCI):
Several values for one entry are separate records, joined by “and”; a condition that tells them apart may be missing. Equal entries are not always repeated.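 Each compound was tested at five concentrations against cells in 96-well plates for 48 hours. GI50 = concentration required for 50% inhibition of growth. Definition used: TGI = concentration required for complete inhibition of growth.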

Columns and labels:
Experiment in all cases: growth of human tumour cells (NCI), 48 h
[1] = tested on: 786-0 renal
[2] = tested on: HOP-92 NSCLC
[3] = tested on: MALME-3M melanoma
[4] = tested on: OVCAR-4 ovarian
[5] = tested on: RPMI-8226 leukemia
[6] = tested on: SF-268 CNS
[7] = tested on: SK-OV-3 ovarian
[8] = tested on: TK-10 renal
[9] = tested on: UACC-62 melanoma
[10] = tested on: HCC-2998 colon

| SMILES | GI50 [1] | TGI [1] [µM] | GI50 [2] [nM] | TGI [2] [µM] | GI50 [3] [µM] | TGI [3] [µM] | GI50 [4] [µM] | TGI [4] [µM] | GI50 [5] | TGI [5] | GI50 [6] [µM] | TGI [6] [µM] | GI50 [7] [µM] | TGI [7] [µM] | GI50 [8] [µM] | TGI [8] [µM] | GI50 [9] [µM] | TGI [9] [µM] | TGI [10] [µM] | GI50 [10] [µM] |
| --- | --- | --- | --- | --- | --- | --- | --- | --- | --- | --- | --- | --- | --- | --- | --- | --- | --- | --- | --- | --- |
| N#Cc1c2ccccc2c2nnc3ccc(C(F)(F)F)cc3n12 | > 100 µM | > 100 | 91600 | > 100 | 47.9 | > 100 | 97.9 | > 100 | 29.4 µM | > 100 µM | 80.7 | > 100 | 89.9 | > 100 | 23 | > 100 | 66.8 | > 100 |  |  |
| COC1=CC(=O)OC(/C=C(C)/C=C/C2=C(C)CCCC2(C)C)C1 (stereo not drawn) |  | > 100 |  | > 100 |  | > 100 |  | > 100 |  |  |  | > 100 |  | > 100 |  | > 100 |  | > 100 | > 100 |  |
| CC(=O)SC(SC(C)=O)SC(C)=O |  | > 100 |  |  |  | > 100 |  | > 100 |  |  |  | > 100 |  | > 100 |  | > 100 |  | > 100 | > 100 |  |
| NC(=O)CCc1ccccc1Oc1nccc(-c2c(-c3ccc(F)cc3)ncn2C2CCNCC2)n1 | > 25 µM | > 25 |  |  | > 25 | > 25 | > 25 | > 25 | > 25 µM | > 25 µM | > 25 | > 25 | > 25 | > 25 | > 25 | > 25 | > 25 | > 25 | > 25 | > 25 |
| COc1cc(C2C(C(=O)O)=C(COC(C)=O)Oc3cc4c(cc32)OCO4)cc(OC)c1OC(C)=O (stereo not drawn) |  | > 100 |  | > 100 |  | > 100 |  | > 100 |  | > 100 µM |  |  |  | > 100 |  | > 100 |  | > 100 |  |  |
| COC(=O)c1nc(C(=O)OC)c2c([nH]c3ccccc32)c1C(=O)OC |  | > 100 |  | > 100 |  | > 100 |  |  |  |  |  |  |  |  |  | > 100 |  | > 100 | > 100 |  |
| C#CCn1c(=O)c2cccnc2n(CC#C)c1=O |  | > 100 |  | > 100 |  | > 100 |  | > 100 |  | > 100 µM |  | > 100 |  | > 100 |  | > 100 |  |  | > 100 |  |
| O=C(O)CCC1CCc2cccc(OCC(=O)O)c2C1=O (stereo not drawn) |  | > 100 |  | > 100 |  |  |  | > 100 |  | > 100 µM |  |  |  | > 100 |  | > 100 |  | > 100 | > 100 |  |
| CC(C)(CN1CCCCC1)C(=O)CC(SCCN)c1ccc(Cl)cc1 (stereo not drawn) |  | 3.21 |  |  |  | 11.6 |  | 10.1 |  | 3.86 µM |  | 9.36 |  | 7.83 |  | 5.19 |  | 3.56 | 3.76 |  |
| O=C(O)CNCCc1ccccc1 |  | > 100 |  | > 100 |  | > 100 |  | > 100 |  | > 100 µM |  | > 100 |  | > 100 |  | > 100 |  | > 100 |  |  |
| N#C/C(=C\c1ccc(F)cc1)n1nc2cccc(F)c2n1 | 7.13 µM | > 100 | 2100 | 9.15 | 5.03 | > 100 | 4.19 | > 100 | 3.09 µM | 87.1 µM | 4.99 | > 100 |  |  | 7.01 | > 100 | 3.3 | > 100 | > 100 | 7.14 |
| CC(C)OCc1cc(CN2CCN(c3cccc(Cl)c3)CC2)c(O)c2ncccc12 | 0.785 µM | 9.56 | 1430 | 19.4 | 1.03 | 7.33 |  |  | 0.558 µM | 13.3 µM | 0.629 | 14.7 | 0.71 | 12.2 | 0.837 | 21 | 0.333 | 1.43 | 11.3 | 0.92 |
| Cn1c(=O)c2[nH]c(CCCc3ccc([N+](=O)[O-])cc3)nc2n(C)c1=O |  | > 100 |  | > 100 |  | > 100 |  | > 100 |  | > 100 µM |  | > 100 |  | > 100 |  | > 100 |  | > 100 |  |  |
| O=c1[nH]c(F)nc2c1ncn2C1OC(CO)C(O)C1O (stereo not drawn) | > 100 µM | > 100 | > 100000 | > 100 | > 100 | > 100 |  |  | > 100 µM | > 100 µM | > 100 | > 100 | > 100 | > 100 |  |  | > 100 | > 100 | > 100 | > 100 |
| O=C(/C=C/c1nnc2n(Cc3ccccc3)c(=O)c3c4c(sc3n12)CCCC4)c1ccccc1 | 1.56 µM and 2.36 µM |  | 1550 | > 100 | > 100 | > 100 |  |  | 0.177 µM and 0.254 µM | 0.817 µM and 0.738 µM | 4.59 | > 100 | > 100 | > 100 | 0.354 | 1.38 | > 100 | > 100 | > 100 | > 100 |
| O=C(O)c1ccc(Oc2nc3ccccc3s2)cc1 |  | > 100 |  | > 100 |  | > 100 |  | > 100 |  | > 100 µM |  | > 100 |  | > 100 |  | > 100 |  | > 100 |  |  |
| CC1(C)OC2C(CO)OC(n3ccc(N)nc3=O)C2O1 (stereo not drawn) |  | > 100 |  | > 100 |  | > 100 |  |  |  | > 100 µM |  | > 100 |  | > 100 |  | > 100 |  | > 100 | > 100 |  |
| CC(=O)N(CCN1C(=O)c2ccccc2C1=O)CCN1C(=O)c2ccccc2C1=O |  | > 100 |  | > 100 |  |  |  | > 100 |  | > 100 µM |  | > 100 |  | > 100 |  | > 100 |  | > 100 | > 100 |  |
| N#Cc1c2ccccc2c2nnc3ccccc3n12 | 53.2 µM | > 100 | > 100000 | > 100 | > 100 | > 100 | > 100 | > 100 | > 100 µM | > 100 µM | 50 | > 100 | > 100 | > 100 | 31.7 | > 100 |  |  |  |  |
